From ChEMBL document CHEMBL2346657, “Synthesis of novel 2-amino-4-(5'-substituted 2'-phenyl-1H-indol-3'-yl)-6-aryl-4H-pyran-3-carbonitrile derivatives as antimicrobial and antioxidant agents” (2013)
Calls of active or inactive are those of the source.

System: Escherichia coli
Experiment: Antimicrobial activity against Escherichia coli MTCC 723 at 500 ug/ml after 24 hrs by cup plate method
Type: functional
Settings: MTCC 723, 24 h, read-out: IZ
`Nc1n[nH]c2c1C(c1c(-c3ccccc3)[nH]c3ccccc13)C=C(c1ccc(Cl)cc1)O2` (stereo unspecified) showed a zone of inhibition at 500 µg/mL of 13 mm.

System: Pseudomonas aeruginosa
Experiment: Antimicrobial activity against Pseudomonas aeruginosa MTCC 1688 at 750 ug/ml after 24 hrs by cup plate method
Type: functional
Settings: MTCC 1688, 24 h, read-out: IZ
In the case of `Nc1n[nH]c2c1C(c1c(-c3ccccc3)[nH]c3ccccc13)C=C(c1ccc(Cl)cc1)O2` (stereo unspecified), the zone of inhibition at 750 µg/mL is reported as 10 mm.

System: Escherichia coli
Experiment: Antimicrobial activity against Escherichia coli MTCC 723 at 1000 ug/ml after 24 hrs by cup plate method
Type: functional
Settings: MTCC 723, 24 h, read-out: IZ
Work on `Nc1n[nH]c2c1C(c1c(-c3ccccc3)[nH]c3ccccc13)C=C(c1ccc(Cl)cc1)O2` (stereo unspecified) yielded a zone of inhibition at 1000 µg/mL of 14 mm.

System: Aspergillus flavus
Experiment: Antimicrobial activity against Aspergillus flavus MTCC 1973 at 1000 ug/ml after 72 hrs by cup plate method
Type: functional
Settings: MTCC 1973, 72 h, read-out: IZ
Work on `Nc1n[nH]c2c1C(c1c(-c3ccccc3)[nH]c3ccccc13)C=C(c1ccc(Cl)cc1)O2` (stereo unspecified) yielded a zone of inhibition at 1000 µg/mL of 9 mm.

System: Aspergillus flavus
Experiment: Antimicrobial activity against Aspergillus flavus MTCC 1973 at 500 ug/ml after 72 hrs by cup plate method
Type: functional
Settings: MTCC 1973, 72 h, read-out: IZ
Compound `Nc1n[nH]c2c1C(c1c(-c3ccccc3)[nH]c3ccccc13)C=C(c1ccc(Cl)cc1)O2` (stereo unspecified) has a zone of inhibition at 500 µg/mL of 9 mm.

System: Aspergillus niger
Experiment: Antimicrobial activity against Aspergillus niger MTCC 281 at 500 ug/ml after 72 hrs by cup plate method
Type: functional
Settings: MTCC 281, 72 h, read-out: IZ
With `Nc1n[nH]c2c1C(c1c(-c3ccccc3)[nH]c3ccccc13)C=C(c1ccc(Cl)cc1)O2` (stereo unspecified) the zone of inhibition at 500 µg/mL was 7 mm.

System: Aspergillus oryzae
Experiment: Antimicrobial activity against Aspergillus oryzae MTCC 3567 at 750 ug/ml after 72 hrs by cup plate method
Type: functional
Settings: MTCC 3567, 72 h, read-out: IZ
With `Nc1n[nH]c2c1C(c1c(-c3ccccc3)[nH]c3ccccc13)C=C(c1ccc(Cl)cc1)O2` (stereo unspecified) the zone of inhibition at 750 µg/mL was 12 mm.

System: Aspergillus niger
Experiment: Antimicrobial activity against Aspergillus niger MTCC 281 at 750 ug/ml after 72 hrs by cup plate method
Type: functional
Settings: MTCC 281, 72 h, read-out: IZ
With `Nc1n[nH]c2c1C(c1c(-c3ccccc3)[nH]c3ccccc13)C=C(c1ccc(Cl)cc1)O2` (stereo unspecified) the zone of inhibition at 750 µg/mL was 5 mm.

System: Klebsiella pneumoniae
Experiment: Antimicrobial activity against Klebsiella pneumoniae NCTC 13368 at 750 ug/ml after 24 hrs by cup plate method
Type: functional
Settings: NCTC 13368, 24 h, read-out: IZ
Compound `Nc1n[nH]c2c1C(c1c(-c3ccccc3)[nH]c3ccccc13)C=C(c1ccc(Cl)cc1)O2` (stereo unspecified) has a zone of inhibition at 750 µg/mL of 5 mm.

System: Aspergillus terreus
Experiment: Antimicrobial activity against Aspergillus terreus MTCC 1782 at 750 ug/ml after 72 hrs by cup plate method
Type: functional
Settings: MTCC 1782, 72 h, read-out: IZ
In the case of `Nc1n[nH]c2c1C(c1c(-c3ccccc3)[nH]c3ccccc13)C=C(c1ccc(Cl)cc1)O2` (stereo unspecified), the zone of inhibition at 750 µg/mL is reported as 6 mm.

System: Aspergillus oryzae
Experiment: Antimicrobial activity against Aspergillus oryzae MTCC 3567 at 500 ug/ml after 72 hrs by cup plate method
Type: functional
Settings: MTCC 3567, 72 h, read-out: IZ
In the case of `Nc1n[nH]c2c1C(c1c(-c3ccccc3)[nH]c3ccccc13)C=C(c1ccc(Cl)cc1)O2` (stereo unspecified), the zone of inhibition at 500 µg/mL is reported as 12 mm.

System: Staphylococcus aureus
Experiment: Antimicrobial activity against Staphylococcus aureus ATCC 29513 at 1000 ug/ml after 24 hrs by cup plate method
Type: functional
Settings: ATCC 29513, 24 h, read-out: IZ
Compound `Nc1n[nH]c2c1C(c1c(-c3ccccc3)[nH]c3ccccc13)C=C(c1ccc(Cl)cc1)O2` (stereo unspecified) has a zone of inhibition at 1000 µg/mL of 3 mm.

System: Escherichia coli
Experiment: Antimicrobial activity against Escherichia coli MTCC 723 at 750 ug/ml after 24 hrs by cup plate method
Type: functional
Settings: MTCC 723, 24 h, read-out: IZ
Compound `Nc1n[nH]c2c1C(c1c(-c3ccccc3)[nH]c3ccccc13)C=C(c1ccc(Cl)cc1)O2` (stereo unspecified) has a zone of inhibition at 750 µg/mL of 13 mm.

System: Aspergillus oryzae
Experiment: Antimicrobial activity against Aspergillus oryzae MTCC 3567 at 1000 ug/ml after 72 hrs by cup plate method
Type: functional
Settings: MTCC 3567, 72 h, read-out: IZ
`Nc1n[nH]c2c1C(c1c(-c3ccccc3)[nH]c3ccccc13)C=C(c1ccc(Cl)cc1)O2` (stereo unspecified) gave a zone of inhibition at 1000 µg/mL of 13 mm.

System: Pseudomonas aeruginosa
Experiment: Antimicrobial activity against Pseudomonas aeruginosa MTCC 1688 at 500 ug/ml after 24 hrs by cup plate method
Type: functional
Settings: MTCC 1688, 24 h, read-out: IZ
In the case of `Nc1n[nH]c2c1C(c1c(-c3ccccc3)[nH]c3ccccc13)C=C(c1ccc(Cl)cc1)O2` (stereo unspecified), the zone of inhibition at 500 µg/mL is reported as 10 mm.

System: not listed separately
Experiment: Antioxidant activity assessed as metal chelating activity by measuring inhibition of ferrozine-Fe2+ complex formation at 25 to 100 ug/ml
Type: functional
Settings: not given
In the case of `Nc1n[nH]c2c1C(c1c(-c3ccccc3)[nH]c3ccccc13)C=C(c1ccc(Cl)cc1)O2` (stereo unspecified), the Activity is reported as “Active”.

System: Staphylococcus aureus
Experiment: Antimicrobial activity against Staphylococcus aureus ATCC 29513 at 500 ug/ml after 24 hrs by cup plate method
Type: functional
Settings: ATCC 29513, 24 h, read-out: IZ
In the case of `Nc1n[nH]c2c1C(c1c(-c3ccccc3)[nH]c3ccccc13)C=C(c1ccc(Cl)cc1)O2` (stereo unspecified), the zone of inhibition at 500 µg/mL is reported as 5 mm.

System: Aspergillus niger
Experiment: Antimicrobial activity against Aspergillus niger MTCC 281 at 1000 ug/ml after 72 hrs by cup plate method
Type: functional
Settings: MTCC 281, 72 h, read-out: IZ
In the case of `Nc1n[nH]c2c1C(c1c(-c3ccccc3)[nH]c3ccccc13)C=C(c1ccc(Cl)cc1)O2` (stereo unspecified), the zone of inhibition at 1000 µg/mL is reported as 3 mm.

System: Klebsiella pneumoniae
Experiment: Antimicrobial activity against Klebsiella pneumoniae NCTC 13368 at 1000 ug/ml after 24 hrs by cup plate method
Type: functional
Settings: NCTC 13368, 24 h, read-out: IZ
Work on `Nc1n[nH]c2c1C(c1c(-c3ccccc3)[nH]c3ccccc13)C=C(c1ccc(Cl)cc1)O2` (stereo unspecified) yielded a zone of inhibition at 1000 µg/mL of 5 mm.

System: Aspergillus terreus
Experiment: Antimicrobial activity against Aspergillus terreus MTCC 1782 at 500 ug/ml after 72 hrs by cup plate method
Type: functional
Settings: MTCC 1782, 72 h, read-out: IZ
`Nc1n[nH]c2c1C(c1c(-c3ccccc3)[nH]c3ccccc13)C=C(c1ccc(Cl)cc1)O2` (stereo unspecified) showed a zone of inhibition at 500 µg/mL of 8 mm.

System: Klebsiella pneumoniae
Experiment: Antimicrobial activity against Klebsiella pneumoniae NCTC 13368 at 500 ug/ml after 24 hrs by cup plate method
Type: functional
Settings: NCTC 13368, 24 h, read-out: IZ
For `Nc1n[nH]c2c1C(c1c(-c3ccccc3)[nH]c3ccccc13)C=C(c1ccc(Cl)cc1)O2` (stereo unspecified), the zone of inhibition at 500 µg/mL was 5 mm.

System: not listed separately
Experiment: Antioxidant activity assessed as ferric ion reducing activity at 75 ug/ml by FRAP assay
Type: functional
Settings: not given
For `Nc1n[nH]c2c1C(c1c(-c3ccccc3)[nH]c3ccccc13)C=C(c1ccc(Cl)cc1)O2` (stereo unspecified), the Activity was “Active”.

System: Staphylococcus aureus
Experiment: Antimicrobial activity against Staphylococcus aureus ATCC 29513 at 750 ug/ml after 24 hrs by cup plate method
Type: functional
Settings: ATCC 29513, 24 h, read-out: IZ
Compound `Nc1n[nH]c2c1C(c1c(-c3ccccc3)[nH]c3ccccc13)C=C(c1ccc(Cl)cc1)O2` (stereo unspecified) has a zone of inhibition at 750 µg/mL of 4 mm.

System: Aspergillus terreus
Experiment: Antimicrobial activity against Aspergillus terreus MTCC 1782 at 1000 ug/ml after 72 hrs by cup plate method
Type: functional
Settings: MTCC 1782, 72 h, read-out: IZ
Work on `Nc1n[nH]c2c1C(c1c(-c3ccccc3)[nH]c3ccccc13)C=C(c1ccc(Cl)cc1)O2` (stereo unspecified) yielded a zone of inhibition at 1000 µg/mL of 11 mm.

System: Pseudomonas aeruginosa
Experiment: Antimicrobial activity against Pseudomonas aeruginosa MTCC 1688 at 1000 ug/ml after 24 hrs by cup plate method
Type: functional
Settings: MTCC 1688, 24 h, read-out: IZ
`Nc1n[nH]c2c1C(c1c(-c3ccccc3)[nH]c3ccccc13)C=C(c1ccc(Cl)cc1)O2` (stereo unspecified) showed a zone of inhibition at 1000 µg/mL of 10 mm.

System: Aspergillus flavus
Experiment: Antimicrobial activity against Aspergillus flavus MTCC 1973 at 750 ug/ml after 72 hrs by cup plate method
Type: functional
Settings: MTCC 1973, 72 h, read-out: IZ
Compound `Nc1n[nH]c2c1C(c1c(-c3ccccc3)[nH]c3ccccc13)C=C(c1ccc(Cl)cc1)O2` (stereo unspecified) has a zone of inhibition at 750 µg/mL of 9 mm.
